Columns and labels:
Test in all cases: Kinase Assay
[1] = target: Tyrosine-protein kinase ABL1 (Homo sapiens, UniProt P00519)
[2] = target: cAMP-dependent protein kinase catalytic subunit alpha (Homo sapiens, UniProt P17612)
[3] = target: Protein kinase C alpha type (Homo sapiens, UniProt P17252)
[4] = target: Tyrosine-protein kinase CSK (Homo sapiens, UniProt P41240)
[5] = target: Epidermal growth factor receptor (Homo sapiens, UniProt P00533)
Description: Determination of EGF receptor kinase activity was performed as described using A431 membranes as the enzyme source and agiotensin II as substrate.

Chain of Tyrosine-protein kinase ABL1 (P00519 whole entry): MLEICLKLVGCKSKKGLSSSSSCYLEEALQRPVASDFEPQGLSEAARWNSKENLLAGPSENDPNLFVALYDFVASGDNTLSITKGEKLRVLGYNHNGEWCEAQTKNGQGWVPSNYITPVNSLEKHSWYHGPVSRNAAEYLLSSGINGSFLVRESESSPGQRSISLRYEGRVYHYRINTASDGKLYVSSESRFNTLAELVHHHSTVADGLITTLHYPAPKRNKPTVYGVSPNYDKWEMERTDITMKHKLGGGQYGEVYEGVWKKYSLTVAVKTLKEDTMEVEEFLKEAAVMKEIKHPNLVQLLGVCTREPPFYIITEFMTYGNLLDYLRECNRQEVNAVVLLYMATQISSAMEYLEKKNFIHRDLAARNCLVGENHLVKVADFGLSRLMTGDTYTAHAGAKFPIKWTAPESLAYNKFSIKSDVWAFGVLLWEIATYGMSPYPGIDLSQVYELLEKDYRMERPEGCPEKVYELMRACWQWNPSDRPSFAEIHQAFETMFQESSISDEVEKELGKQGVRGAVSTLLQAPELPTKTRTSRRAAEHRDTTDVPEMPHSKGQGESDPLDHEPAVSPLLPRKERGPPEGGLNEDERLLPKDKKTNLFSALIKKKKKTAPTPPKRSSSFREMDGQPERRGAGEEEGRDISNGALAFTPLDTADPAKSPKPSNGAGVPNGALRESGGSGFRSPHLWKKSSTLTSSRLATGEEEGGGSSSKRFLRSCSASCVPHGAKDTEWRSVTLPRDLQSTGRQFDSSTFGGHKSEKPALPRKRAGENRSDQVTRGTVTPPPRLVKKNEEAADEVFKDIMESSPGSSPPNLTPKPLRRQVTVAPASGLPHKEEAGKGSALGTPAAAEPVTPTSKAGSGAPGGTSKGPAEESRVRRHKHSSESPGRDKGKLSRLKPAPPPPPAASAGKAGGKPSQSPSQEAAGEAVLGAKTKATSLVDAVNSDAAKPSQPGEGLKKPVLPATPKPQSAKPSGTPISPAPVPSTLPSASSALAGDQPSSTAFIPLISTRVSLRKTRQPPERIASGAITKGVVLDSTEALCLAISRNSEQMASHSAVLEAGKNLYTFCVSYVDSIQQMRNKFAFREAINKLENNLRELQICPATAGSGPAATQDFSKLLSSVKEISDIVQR
Chain of Tyrosine-protein kinase CSK (P41240 whole entry): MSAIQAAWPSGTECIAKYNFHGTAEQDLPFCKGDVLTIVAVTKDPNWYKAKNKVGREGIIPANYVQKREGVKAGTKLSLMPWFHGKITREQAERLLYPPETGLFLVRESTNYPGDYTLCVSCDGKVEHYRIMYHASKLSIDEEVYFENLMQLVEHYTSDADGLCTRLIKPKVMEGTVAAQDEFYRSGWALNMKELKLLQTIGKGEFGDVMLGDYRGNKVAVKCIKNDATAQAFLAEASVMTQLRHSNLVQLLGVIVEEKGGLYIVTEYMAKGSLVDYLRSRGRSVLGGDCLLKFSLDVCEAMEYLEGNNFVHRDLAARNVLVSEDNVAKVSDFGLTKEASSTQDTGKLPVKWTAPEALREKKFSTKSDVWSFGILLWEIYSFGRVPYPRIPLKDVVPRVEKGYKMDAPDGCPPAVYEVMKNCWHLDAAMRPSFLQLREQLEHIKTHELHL
Chain of Epidermal growth factor receptor (P00533 whole entry): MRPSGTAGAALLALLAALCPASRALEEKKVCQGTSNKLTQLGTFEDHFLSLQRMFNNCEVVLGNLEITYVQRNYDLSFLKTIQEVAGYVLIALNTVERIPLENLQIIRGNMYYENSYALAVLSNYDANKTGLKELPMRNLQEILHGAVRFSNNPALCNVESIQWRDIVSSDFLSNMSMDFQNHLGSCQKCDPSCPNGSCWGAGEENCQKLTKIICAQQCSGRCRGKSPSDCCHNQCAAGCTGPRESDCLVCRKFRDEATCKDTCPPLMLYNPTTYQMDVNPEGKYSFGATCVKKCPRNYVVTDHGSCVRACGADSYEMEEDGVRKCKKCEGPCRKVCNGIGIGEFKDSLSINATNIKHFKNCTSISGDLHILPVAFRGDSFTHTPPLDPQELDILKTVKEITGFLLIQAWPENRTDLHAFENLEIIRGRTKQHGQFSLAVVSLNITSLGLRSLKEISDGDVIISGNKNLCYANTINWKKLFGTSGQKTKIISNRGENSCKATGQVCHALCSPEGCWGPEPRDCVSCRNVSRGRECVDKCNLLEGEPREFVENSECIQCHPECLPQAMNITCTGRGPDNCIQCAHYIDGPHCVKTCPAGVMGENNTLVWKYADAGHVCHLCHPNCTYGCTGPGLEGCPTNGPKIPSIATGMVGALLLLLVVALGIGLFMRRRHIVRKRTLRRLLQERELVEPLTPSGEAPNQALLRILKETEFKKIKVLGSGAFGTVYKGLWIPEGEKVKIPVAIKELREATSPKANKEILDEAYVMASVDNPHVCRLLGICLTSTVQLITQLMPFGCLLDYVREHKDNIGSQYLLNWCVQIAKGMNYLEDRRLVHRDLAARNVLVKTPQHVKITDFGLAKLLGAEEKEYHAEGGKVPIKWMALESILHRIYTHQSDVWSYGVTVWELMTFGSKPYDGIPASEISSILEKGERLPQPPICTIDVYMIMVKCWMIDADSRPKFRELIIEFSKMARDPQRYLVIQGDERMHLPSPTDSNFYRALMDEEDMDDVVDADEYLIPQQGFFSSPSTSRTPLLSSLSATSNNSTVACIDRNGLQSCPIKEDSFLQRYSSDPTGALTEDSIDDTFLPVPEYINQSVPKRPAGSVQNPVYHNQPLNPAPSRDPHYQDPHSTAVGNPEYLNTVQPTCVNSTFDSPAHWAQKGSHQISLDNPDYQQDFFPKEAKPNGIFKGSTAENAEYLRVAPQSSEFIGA

## O=c1c(-c2ccc(O)cc2)coc2cc(O)cc(O)c12 [Prunetol]
[1]
  IC50: 39 µM
[2]
  IC50: > 100 µM
[3]
  IC50: 15 µM
[4]
  IC50: > 50 µM

## C=CCN1C(=O)C(=C)SC1=NN=c1scc(O)n1C [Thiazolidine-dione, 1]
[1]
  IC50: > 100 µM
[2]
  IC50: > 500 µM
[3]
  IC50: > 500 µM
[4]
  IC50: 4 µM
[5]
  IC50: 6 µM

## C=C(C)CN1C(=O)C(=C)SC1=NN=c1scc(O)n1C [Thiazolidine-dione, 2]
[1]
  IC50: 100 µM
[2]
  IC50: > 500 µM
[3]
  IC50: > 100 µM
[4]
  IC50: 3 µM
[5]
  IC50: 1 µM

## C=C(C)Cn1c(O)c(CN(C)C)sc1=NN=c1scc(O)n1C [Thiazolidine-dione, 3]
[1]
  IC50: > 100 µM
[2]
  IC50: > 500 µM
[3]
  IC50: 350 µM
[4]
  IC50: 7 µM
[5]
  IC50: 2 µM

## C=C(C)Cn1c(O)csc1=NN=c1scc(O)n1C [Thiazolidine-dione, 4]
[1]
  IC50: > 100 µM
[3]
  IC50: > 100 µM
[4]
  IC50: > 100 µM
[5]
  IC50: > 50 µM

## C=CCn1c(O)c(C)sc1=NN=c1scc(O)n1C [Thiazolidine-dione, 5]
[1]
  IC50: > 100 µM
[3]
  IC50: > 100 µM
[4]
  IC50: > 100 µM
[5]
  IC50: > 50 µM

## C=C(C)Cn1c(O)c(C)sc1=NN=c1scc(O)n1C [Thiazolidine-dione, 6]
[1]
  IC50: > 100 µM
[3]
  IC50: > 100 µM
[4]
  IC50: > 100 µM
[5]
  IC50: > 50 µM

## C=C(C)Cn1c(O)c(O)sc1=NN=c1scc(O)n1C [Thiazolidine-dione, 7]
[1]
  IC50: > 100 µM
[3]
  IC50: > 100 µM
[4]
  IC50: > 100 µM
[5]
  IC50: > 100 µM

## C=C(C)Cn1c(O)c(CO)sc1=NN=c1scc(O)n1C [Thiazolidine-dione, 8]
[1]
  IC50: > 100 µM
[3]
  IC50: > 100 µM
[5]
  IC50: > 50 µM

## C=CCn1c(O)c(CC(=O)O)sc1=NN=c1scc(O)n1C [Thiazolidine-dione, 9]
[1]
  IC50: > 100 µM
[3]
  IC50: > 100 µM
[4]
  IC50: > 100 µM
[5]
  IC50: > 100 µM

## C=C(C)Cn1c(O)c(OS(=O)O)sc1=NN=c1scc(O)n1C [Thiazolidine-dione, 10]
[1]
  IC50: > 100 µM
[2]
  IC50: > 100 µM
[3]
  IC50: > 100 µM
[4]
  IC50: > 100 µM
[5]
  IC50: 100 µM
